Reference: PMC7960226 (Science (New York, N.Y.), 2020)
Where two headings read alike, the source gives them in different places. Marks after values point to notes of the source that are not given here.

What was measured:
[1] = Madin-Darby canine kidney permeability assay
[2] = Pharmacokinetics in rats after i.v. and oral administration
[3] = molecular target: T1, PTGS2 (Homo sapiens, UniProt P35354); assay: safety panel assay, PTGS2; assay type: biochemical; details: Table 2, PTGS2; accurate to ±20%
T1 sequence (P35354 18-604): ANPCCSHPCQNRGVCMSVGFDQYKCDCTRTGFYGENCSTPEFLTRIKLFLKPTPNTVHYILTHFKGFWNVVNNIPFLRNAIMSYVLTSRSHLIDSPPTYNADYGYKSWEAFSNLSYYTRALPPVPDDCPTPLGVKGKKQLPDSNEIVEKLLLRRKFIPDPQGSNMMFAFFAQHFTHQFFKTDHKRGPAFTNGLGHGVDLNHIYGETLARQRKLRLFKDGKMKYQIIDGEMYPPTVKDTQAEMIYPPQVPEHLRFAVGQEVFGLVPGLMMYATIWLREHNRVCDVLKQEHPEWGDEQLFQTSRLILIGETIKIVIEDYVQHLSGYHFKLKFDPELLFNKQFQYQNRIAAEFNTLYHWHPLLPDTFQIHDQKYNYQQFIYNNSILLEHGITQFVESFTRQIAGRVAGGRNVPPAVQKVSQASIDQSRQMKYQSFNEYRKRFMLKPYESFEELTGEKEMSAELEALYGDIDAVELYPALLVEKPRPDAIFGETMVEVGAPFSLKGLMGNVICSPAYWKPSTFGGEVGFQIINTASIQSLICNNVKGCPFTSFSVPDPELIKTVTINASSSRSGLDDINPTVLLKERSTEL

[4] = molecular target: T2, SLCO2B1 (Homo sapiens, UniProt O94956); assay: in vitro transporter inhibition, SLCO2B1; assay type: biochemical; details: Table 1, predicted target SLCO2B1
T2 sequence (O94956 1-709): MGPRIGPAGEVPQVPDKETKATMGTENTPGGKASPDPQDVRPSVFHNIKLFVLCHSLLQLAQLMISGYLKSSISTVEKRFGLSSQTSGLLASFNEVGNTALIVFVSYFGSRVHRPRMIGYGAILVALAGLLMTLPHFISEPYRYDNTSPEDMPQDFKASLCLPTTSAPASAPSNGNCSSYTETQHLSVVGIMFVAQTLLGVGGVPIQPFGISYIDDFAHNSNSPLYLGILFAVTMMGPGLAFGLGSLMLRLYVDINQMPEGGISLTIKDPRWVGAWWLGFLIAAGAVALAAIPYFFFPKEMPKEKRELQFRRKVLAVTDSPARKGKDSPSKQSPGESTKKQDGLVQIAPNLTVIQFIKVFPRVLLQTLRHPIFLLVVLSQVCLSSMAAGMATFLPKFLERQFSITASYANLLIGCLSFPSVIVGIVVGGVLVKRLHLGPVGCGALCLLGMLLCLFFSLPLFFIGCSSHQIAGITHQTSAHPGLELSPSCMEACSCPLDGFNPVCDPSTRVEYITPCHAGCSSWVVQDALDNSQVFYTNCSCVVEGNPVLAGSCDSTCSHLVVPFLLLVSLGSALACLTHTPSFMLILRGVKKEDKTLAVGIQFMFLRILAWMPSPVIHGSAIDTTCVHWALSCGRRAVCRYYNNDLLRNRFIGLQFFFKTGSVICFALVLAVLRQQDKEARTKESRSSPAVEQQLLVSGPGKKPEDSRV

[5] = rat, in vivo, 1 mg/kg
[6] = molecular target: T3, SLCO1B1 (Homo sapiens, UniProt Q9Y6L6); assay: in vitro transporter assay, SLCO1B1
T3 sequence (Q9Y6L6 1-691): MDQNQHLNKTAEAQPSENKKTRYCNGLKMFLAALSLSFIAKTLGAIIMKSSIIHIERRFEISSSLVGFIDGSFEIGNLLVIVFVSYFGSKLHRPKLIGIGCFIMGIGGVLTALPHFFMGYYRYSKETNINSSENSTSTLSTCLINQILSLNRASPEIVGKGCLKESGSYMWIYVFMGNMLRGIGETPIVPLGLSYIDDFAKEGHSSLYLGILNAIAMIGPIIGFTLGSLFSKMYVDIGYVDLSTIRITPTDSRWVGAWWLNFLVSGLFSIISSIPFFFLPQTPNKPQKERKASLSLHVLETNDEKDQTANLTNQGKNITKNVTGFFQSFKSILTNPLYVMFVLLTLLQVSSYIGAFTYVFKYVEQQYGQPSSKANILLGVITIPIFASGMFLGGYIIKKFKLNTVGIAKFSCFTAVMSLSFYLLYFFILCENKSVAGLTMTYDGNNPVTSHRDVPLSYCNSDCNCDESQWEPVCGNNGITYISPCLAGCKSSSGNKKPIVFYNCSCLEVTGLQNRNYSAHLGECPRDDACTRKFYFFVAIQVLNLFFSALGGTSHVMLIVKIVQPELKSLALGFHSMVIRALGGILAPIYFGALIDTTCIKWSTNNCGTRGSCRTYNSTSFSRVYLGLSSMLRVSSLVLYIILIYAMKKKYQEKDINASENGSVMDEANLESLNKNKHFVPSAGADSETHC

[7] = molecular target: PDE4D (Homo sapiens, UniProt Q08499); assay: in vitro assay, PDE4D; assay type: biochemical
Chain of PDE4D (Q08499 whole entry): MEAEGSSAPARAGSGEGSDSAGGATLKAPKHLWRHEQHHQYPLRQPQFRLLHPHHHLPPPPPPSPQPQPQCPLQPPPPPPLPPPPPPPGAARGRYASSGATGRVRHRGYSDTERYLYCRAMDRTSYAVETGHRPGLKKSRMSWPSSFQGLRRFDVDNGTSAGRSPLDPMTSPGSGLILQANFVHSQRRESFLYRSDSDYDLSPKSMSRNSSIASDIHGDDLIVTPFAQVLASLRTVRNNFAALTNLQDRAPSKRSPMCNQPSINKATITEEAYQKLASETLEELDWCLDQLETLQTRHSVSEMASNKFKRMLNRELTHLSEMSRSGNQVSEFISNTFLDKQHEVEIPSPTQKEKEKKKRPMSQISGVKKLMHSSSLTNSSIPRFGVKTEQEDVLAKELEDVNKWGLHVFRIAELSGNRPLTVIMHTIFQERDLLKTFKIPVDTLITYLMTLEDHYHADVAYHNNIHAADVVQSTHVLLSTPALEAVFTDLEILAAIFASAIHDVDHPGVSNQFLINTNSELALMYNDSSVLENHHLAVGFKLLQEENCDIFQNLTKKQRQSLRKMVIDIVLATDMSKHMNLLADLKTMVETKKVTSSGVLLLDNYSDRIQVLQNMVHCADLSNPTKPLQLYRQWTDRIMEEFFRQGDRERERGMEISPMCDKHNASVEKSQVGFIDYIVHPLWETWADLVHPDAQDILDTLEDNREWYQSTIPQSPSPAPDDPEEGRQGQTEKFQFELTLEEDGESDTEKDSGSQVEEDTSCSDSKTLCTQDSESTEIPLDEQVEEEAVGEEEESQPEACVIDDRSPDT

[8] = rat, in vivo, cited from earlier work
[9] = test system: BioMAP Diversity PLUS panel; assay: BioMAP Diversity PLUS panel of cell-based systems
[10] = human adults after repeated vaccination ref 43; cited from earlier work
[11] = molecular target: DRD3 (Homo sapiens, UniProt P35462); details: for Kd: read-out: dopamine D3 receptor Kd
Chain of DRD3 (P35462 whole entry, species assumed): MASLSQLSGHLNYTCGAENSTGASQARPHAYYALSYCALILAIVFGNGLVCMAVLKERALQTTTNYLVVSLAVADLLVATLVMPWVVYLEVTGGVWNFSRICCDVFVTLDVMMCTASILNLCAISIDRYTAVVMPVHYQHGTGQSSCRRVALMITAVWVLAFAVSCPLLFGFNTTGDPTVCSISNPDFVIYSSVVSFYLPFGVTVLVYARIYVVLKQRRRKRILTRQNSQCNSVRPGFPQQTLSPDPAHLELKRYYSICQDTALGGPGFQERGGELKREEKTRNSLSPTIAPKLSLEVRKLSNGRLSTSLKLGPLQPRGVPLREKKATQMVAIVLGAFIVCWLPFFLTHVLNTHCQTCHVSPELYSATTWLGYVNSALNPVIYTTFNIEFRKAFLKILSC

[12] = molecular target: DRD5 (Homo sapiens, UniProt P21918); assay: in vitro assay, DRD5; assay type: binding
Chain of DRD5 (P21918 whole entry, species assumed): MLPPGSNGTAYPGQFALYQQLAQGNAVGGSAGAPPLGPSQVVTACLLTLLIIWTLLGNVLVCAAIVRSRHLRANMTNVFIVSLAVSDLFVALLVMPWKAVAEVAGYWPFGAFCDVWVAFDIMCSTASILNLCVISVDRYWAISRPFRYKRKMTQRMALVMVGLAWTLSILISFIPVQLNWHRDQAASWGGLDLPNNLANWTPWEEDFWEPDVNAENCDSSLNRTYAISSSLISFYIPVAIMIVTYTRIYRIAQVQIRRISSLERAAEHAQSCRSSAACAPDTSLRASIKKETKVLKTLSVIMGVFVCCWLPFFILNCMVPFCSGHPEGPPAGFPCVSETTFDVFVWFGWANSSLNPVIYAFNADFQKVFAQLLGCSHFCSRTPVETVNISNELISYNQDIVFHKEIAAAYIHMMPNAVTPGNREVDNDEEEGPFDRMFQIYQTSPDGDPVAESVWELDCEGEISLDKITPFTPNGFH

[13] = molecular target: SLC18A2 (Homo sapiens, UniProt Q05940); assay: transporter inhibition, SLC18A2; assay type: biochemical; details: Table 2, SLC18A2; accurate to ±20%
Chain of SLC18A2 (Q05940 whole entry, species assumed): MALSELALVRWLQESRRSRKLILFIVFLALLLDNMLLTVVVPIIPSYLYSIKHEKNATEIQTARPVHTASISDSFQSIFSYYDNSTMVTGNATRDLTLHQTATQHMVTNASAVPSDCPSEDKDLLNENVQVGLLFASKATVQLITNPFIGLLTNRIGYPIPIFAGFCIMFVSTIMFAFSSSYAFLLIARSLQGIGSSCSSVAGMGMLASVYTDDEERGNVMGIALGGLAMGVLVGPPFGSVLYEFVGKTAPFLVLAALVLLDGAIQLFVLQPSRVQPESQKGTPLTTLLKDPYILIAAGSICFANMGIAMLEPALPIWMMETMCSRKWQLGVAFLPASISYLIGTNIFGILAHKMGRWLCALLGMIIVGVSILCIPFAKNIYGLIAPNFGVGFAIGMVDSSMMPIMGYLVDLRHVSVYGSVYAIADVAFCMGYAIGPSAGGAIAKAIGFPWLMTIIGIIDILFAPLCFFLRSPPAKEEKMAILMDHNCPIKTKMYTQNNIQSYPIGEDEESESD

[14] = molecular target: PDE3A (Homo sapiens, UniProt Q14432); assay: safety panel assay, PDE3A; assay type: biochemical; details: Table 2, PDE3A; accurate to ±20%
[15] = test system: rat brain; details: prenatal treatment, rat brain ref 51; cited from earlier work
[16] = test system: rats; details: cited from earlier work
[17] = molecular target: T4, CHRM1 (Homo sapiens, UniProt P11229); details: Table 2, CHRM1; accurate to ±20%
T4 sequence (P11229 1-460): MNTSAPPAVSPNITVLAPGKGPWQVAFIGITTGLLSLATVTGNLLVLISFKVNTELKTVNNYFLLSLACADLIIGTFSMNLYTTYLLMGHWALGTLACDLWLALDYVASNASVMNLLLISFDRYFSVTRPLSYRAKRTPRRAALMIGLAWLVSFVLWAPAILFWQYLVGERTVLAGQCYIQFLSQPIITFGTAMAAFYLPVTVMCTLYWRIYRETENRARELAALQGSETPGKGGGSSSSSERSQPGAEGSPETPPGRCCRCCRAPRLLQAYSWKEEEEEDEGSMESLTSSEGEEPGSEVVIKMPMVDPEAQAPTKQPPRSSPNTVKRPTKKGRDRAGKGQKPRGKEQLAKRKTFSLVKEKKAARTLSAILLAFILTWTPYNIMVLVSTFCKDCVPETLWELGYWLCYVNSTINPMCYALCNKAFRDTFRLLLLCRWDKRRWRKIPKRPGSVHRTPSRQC

[18] = molecular target: T5, ADRA1A (Homo sapiens, UniProt P35348); details: Table 2, ADRA1A; accurate to ±20%
T5 sequence (P35348 1-466): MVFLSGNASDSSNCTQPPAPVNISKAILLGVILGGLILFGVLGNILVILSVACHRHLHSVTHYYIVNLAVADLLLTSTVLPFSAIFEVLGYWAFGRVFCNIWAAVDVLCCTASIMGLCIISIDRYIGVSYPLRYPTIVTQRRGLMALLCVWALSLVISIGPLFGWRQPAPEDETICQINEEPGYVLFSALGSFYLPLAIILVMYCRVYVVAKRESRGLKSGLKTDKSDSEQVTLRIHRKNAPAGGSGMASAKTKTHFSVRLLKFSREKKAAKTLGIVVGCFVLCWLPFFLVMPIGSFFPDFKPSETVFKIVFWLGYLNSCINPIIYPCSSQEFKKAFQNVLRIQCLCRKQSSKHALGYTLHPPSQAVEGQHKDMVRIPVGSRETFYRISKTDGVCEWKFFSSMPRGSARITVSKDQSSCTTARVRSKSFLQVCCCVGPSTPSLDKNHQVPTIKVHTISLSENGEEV

[19] = molecular target: SLC6A2 (Homo sapiens, UniProt P23975); details: Table 2, SLC6A2; accurate to ±20%
Chain of SLC6A2 (P23975 whole entry, species assumed): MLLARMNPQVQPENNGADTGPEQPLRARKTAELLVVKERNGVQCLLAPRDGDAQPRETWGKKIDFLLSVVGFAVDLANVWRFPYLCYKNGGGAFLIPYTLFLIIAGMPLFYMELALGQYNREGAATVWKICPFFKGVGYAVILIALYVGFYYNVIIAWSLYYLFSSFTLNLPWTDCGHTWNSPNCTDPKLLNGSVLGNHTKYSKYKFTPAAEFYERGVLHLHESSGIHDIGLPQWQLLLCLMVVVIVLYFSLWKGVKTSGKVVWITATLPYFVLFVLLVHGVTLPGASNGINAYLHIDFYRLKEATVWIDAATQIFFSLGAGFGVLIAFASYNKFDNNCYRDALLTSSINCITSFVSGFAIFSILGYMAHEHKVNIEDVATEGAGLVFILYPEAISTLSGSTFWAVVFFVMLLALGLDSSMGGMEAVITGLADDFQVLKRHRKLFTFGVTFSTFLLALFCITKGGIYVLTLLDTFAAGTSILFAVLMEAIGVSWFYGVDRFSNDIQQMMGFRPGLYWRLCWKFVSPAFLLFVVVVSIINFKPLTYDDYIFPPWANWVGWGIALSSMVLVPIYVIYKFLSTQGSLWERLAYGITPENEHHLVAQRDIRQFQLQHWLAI

[20] = molecular target: hERG ion channel (Homo sapiens, UniProt Q12809)
Chain of hERG ion channel (Q12809 whole entry): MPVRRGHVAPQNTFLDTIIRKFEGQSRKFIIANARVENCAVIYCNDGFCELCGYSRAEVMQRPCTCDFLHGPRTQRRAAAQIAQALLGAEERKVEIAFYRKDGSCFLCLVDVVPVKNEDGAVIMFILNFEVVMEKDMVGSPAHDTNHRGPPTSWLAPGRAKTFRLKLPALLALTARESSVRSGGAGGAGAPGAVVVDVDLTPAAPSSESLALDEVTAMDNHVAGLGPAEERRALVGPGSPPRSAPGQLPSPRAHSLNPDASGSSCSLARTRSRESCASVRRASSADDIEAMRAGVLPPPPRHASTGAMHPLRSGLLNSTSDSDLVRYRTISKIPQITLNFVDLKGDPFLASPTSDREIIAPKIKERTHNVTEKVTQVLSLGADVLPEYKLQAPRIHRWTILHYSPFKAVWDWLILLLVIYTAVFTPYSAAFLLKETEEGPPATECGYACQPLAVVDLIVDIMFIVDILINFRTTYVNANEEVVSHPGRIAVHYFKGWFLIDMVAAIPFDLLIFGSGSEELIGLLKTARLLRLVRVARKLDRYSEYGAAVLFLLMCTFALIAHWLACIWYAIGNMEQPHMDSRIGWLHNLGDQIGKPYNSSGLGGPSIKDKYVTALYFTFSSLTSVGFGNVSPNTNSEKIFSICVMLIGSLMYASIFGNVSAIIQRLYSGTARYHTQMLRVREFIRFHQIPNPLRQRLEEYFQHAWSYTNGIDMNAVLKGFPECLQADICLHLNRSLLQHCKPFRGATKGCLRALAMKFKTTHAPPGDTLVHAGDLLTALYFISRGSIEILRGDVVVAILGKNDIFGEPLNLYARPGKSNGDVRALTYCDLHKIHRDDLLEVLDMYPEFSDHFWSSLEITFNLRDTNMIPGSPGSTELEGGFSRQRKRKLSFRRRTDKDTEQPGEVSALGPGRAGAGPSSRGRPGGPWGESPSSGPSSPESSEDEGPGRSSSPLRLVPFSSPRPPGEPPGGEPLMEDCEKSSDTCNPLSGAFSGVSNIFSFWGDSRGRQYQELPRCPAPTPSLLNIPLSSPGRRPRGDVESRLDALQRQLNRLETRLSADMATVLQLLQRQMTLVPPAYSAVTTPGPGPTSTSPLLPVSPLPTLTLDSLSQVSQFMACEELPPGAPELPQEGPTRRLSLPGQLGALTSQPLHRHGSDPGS

CCCCCCCCCCCCCCCC[n+]1ccccc1 [Cetylpyridinium chloride]
Papp ([1]; dog, MDCK): < 0.5 ×10⁻⁶ cm/s
bioavailability ([2]; rat, in vivo, 1 mg/kg): 5.4%
half-life ([2]; rat, in vivo, iv, 1 mg/kg): 9.7 h
Cmax ([2]; rat, in vivo, po, 1 mg/kg): 260 nM
i.v. AUC 0–24 (d.n.) ([2]; rats, i.v. 1 mg/kg, dose normalized): 15,972 nM-hour
Oral AUC 0–last (d.n.) ([2]; rats, oral 1 mg/kg, dose normalized): 4,052 nM-hour

N[C@@H](CS)C(=O)O [Cysteine]
Ki/IC50 Or EC50 [3]: 4.7 µM

O=S(=O)([O-])c1ccc(N=Nc2c(O)ccc3ccccc23)cc1.[Na+] [D&C Orange No. 4]
Ki/IC50 [4]: 1.9 µM

Cc1ccc(N=Nc2c([O-])c(C(=O)O)cc3ccccc23)c(S(=O)(=O)[O-])c1.[Na+].[Na+] [D&C Red No. 6]
MDCK-LE Papp ([1]; apparent permeability, Madin-Darby canine kidney permeability assay): <1.2 ×10⁻⁶ cm/s
%F [5]: 2.5%
IC50 ([6]; Table 4, target SLCO1B1): 3.1 µM

CCOC(=O)c1ccccc1C(=O)OCC [Diethyl phthalate]
Ki/IC50 ([7]; Table 1, PDE4D tested in place of SEA-predicted PDE4B and PDE1): 8.5 µM
i.v. AUC 0–24 (d.n.) ([8]; iv): 553 ^† nM-hour
t1/2 from i.v. dose ([8]; iv): 1.0 ^† hours
Cmax ([8]; po): 253 nM
Oral AUC 0–last (d.n.) ([8]; po): 350 ^† nM-hour
TNF-α modulation ([9]; BioMAP, 1.1 to 30 μM): modulated tumor necrosis factor–α (TNF-α) in a dose-dependent manner

CCCCC(CC)COC(=O)CC(C(=O)OCC(CC)CCCC)S(=O)(=O)O (stereo not drawn) [Docusate sodium]
Ki/IC50 [4]: 2.3 µM

C[CH2][Hg] [Ethyl mercury]
median blood concentration of ethyl mercury [10]: 0.14 ng/mL
Ki/IC50 Or EC50 ([11]; Table 2, DRD3, accurate to ±20%): 0.21 µM
Kd [11]: ~0.21 µM
Kd ([11]; listed as major metabolite): 0.21 µM
Ki/IC50 Or EC50 ([12]; Table 2, DRD5, accurate to ±20%): 0.15 µM
Kd ([12]; read-out: dopamine D5 receptor Kd): ~0.15 µM

CCOC(=O)c1ccc(O)cc1 [Ethylparaben]
Ki/IC50 Or EC50 [13]: 22 µM

COc1cc(S(=O)(=O)[O-])c(C)cc1N=Nc1c(O)ccc2cc(S(=O)(=O)[O-])ccc12.[Na+].[Na+] [FD&C Red No. 40]
Ki/IC50 [4]: 4.7 µM

O=S(=O)([O-])c1ccc(N=Nc2c(O)ccc3cc(S(=O)(=O)[O-])ccc23)cc1.[Na+].[Na+] [FD&C Yellow No. 6]
Ki/IC50 [4]: 74 µM

CC1(C)[C@@H](O[C@H]2O[C@H](C(=O)O)[C@@H](O)[C@H](O)[C@H]2O[C@@H]2O[C@H](C(=O)O)[C@@H](O)[C@H](O)[C@H]2O)CC[C@]2(C)[C@H]3C(=O)C=C4[C@@H]5C[C@@](C)(C(=O)O)CC[C@]5(C)CC[C@@]4(C)[C@]3(C)CC[C@@H]12 [Glycyrrhizin]
Ki/IC50 ([6]; Table 1, predicted target SLCO1B1): 13 µM

CCCCCCCCCCCCCCCC(=O)O [Palmitic acid]
Ki/IC50 Or EC50 [14]: 4.1 µM
Ki/IC50 Or EC50 ([7]; Table 2, PDE4D, accurate to ±20%): 6.6 µM
Ki/IC50 Or EC50 [13]: 4.4 µM

C[CH2][Hg][S]c1ccccc1C(=O)[O-].[Na+] [Thimerosal]
effect on serotonergic and dopaminergic systems [15]: impaired the serotonergic and dopaminergic systems in the rat brain
IC50 ([11]; Table 4, target DRD3): 0.32 µM
Kd [11]: 0.32 µM
striatal D2 receptor density (immunohistochemistry) ([16]; rats ref 48): decline in striatal D2 receptor density
behavioral effects ([16]; rats treated postnatally ref 48): impaired locomotor function, increased anxiety/neophobia in the open field, and alterations in social behavior

Cc1ccc(C(C)C)c(O)c1 [Thymol]
Ki/IC50 Or EC50 [17]: 14 µM
Ki/IC50 Or EC50 [18]: 26 µM
Ki/IC50 Or EC50 [19]: 28 µM
Ki/IC50 Or EC50 [13]: 25 µM

CNC1(c2ccccc2Cl)CCCCC1=O (stereo not drawn) [ketamine]
hERG activity [20]: no detectable hERG activity

CC(O)CO (stereo not drawn) [propylene glycol]
activity in the BioMAP cell-based systems ([9]; 1.1, 3.3, 10, 30 μM): no measurable activity
